Earlier results in patent publication US20030153801A1, “Compositions of cyclooxygenase-2 selective inhibitors and radiation for inhibition or prevention of cardiovascular disease” (Pharmacia Corporation, priority 2001, published 2003).

What was measured:
[1] = tested on: vascular smooth muscle cells; settings: in vitro
[2] = tested on: coronary intimal proliferation; settings: oral administration; swine model of restenosis
restenosis = settings: orally administered; stent implanted pig arteries
[3] = single dose pretreatment, intravenous, before coronary stenting

In the case of `COc1cc(/C=C/C(=O)CC(=O)/C=C/c2ccc(O)c(OC)c2)ccc1O` [curcumin], the “proliferation of vascular smooth muscle cells” value [1] is listed as “reduced”.

For `CN(C)CCCO[C@@H]1[C@H]2OC(C)(C)O[C@H]2O[C@@H]1[C@H](O)CO.Cl` [aniprilose hydrochloride], the coronary intimal proliferation [2] is listed as “did not prevent”.

In the case of `COc1ccc(C=CC(=O)Nc2ccccc2C(=O)O)cc1OC` [tranilast, N-(3,4-dimethoxycinnamoyl) anthranilic acid], the rate of restenosis (restenosis) is listed as “lower”.

For `C[C@H]1C[C@@H]2[C@H]([C@@H](O)C[C@@]3(C)[C@H]2CC[C@]3(O)C(=O)CO)[C@@]2(C)C=CC(=O)C=C12` [methylpridnisolone], the “change in minimal lumen diameter at 6 months” value [3] is given as “no effect”.
